Article PMC3469657, “De novo GTP Biosynthesis Is Critical for Virulence of the Fungal Pathogen Cryptococcus neoformans” (PLoS Pathogens, 2012)

Experiments:
[1] = target: T1, CnImd1 (IMP dehydrogenase, CnIMPDH, VNI) (Cryptococcus neoformans, UniProt J9VET5); test: crystal structure with IMP and MPA; steady-state kinetics (tight-binding uncompetitive vs NAD+); type: biochemical
T1 construct: gene CNAG_00441; recombinant, 544 residues; 395 residues modelled per monomer

[2] = target: T2, CgImd1 (IMP dehydrogenase, CgIMPDH, VGIV) (Cryptococcus bacillisporus, UniProt E3P6S3); test: NADH production at […] nm, tight-binding inhibition fits; type: biochemical
T2 construct: gene IMD1; recombinant CgImd1 expressed in E. coli

[3] = test system: NC(=O)c1ccc[n+]([C@@H]2O[C@H](COP(=O)([O-])OP(=O)(O)OC[C@H]3O[C@@H](n4cnc5c(N)ncnc54)[C@H](O)[C@@H]3O)[C@@H](O)[C@H]2O)c1; test: purified protein; conditions: IMP NAD+ site; substrate inhibition attributed to an E-XMP*•NAD+ complex; varied: cofactor

T1 sequence (J9VET5 entry or part of it): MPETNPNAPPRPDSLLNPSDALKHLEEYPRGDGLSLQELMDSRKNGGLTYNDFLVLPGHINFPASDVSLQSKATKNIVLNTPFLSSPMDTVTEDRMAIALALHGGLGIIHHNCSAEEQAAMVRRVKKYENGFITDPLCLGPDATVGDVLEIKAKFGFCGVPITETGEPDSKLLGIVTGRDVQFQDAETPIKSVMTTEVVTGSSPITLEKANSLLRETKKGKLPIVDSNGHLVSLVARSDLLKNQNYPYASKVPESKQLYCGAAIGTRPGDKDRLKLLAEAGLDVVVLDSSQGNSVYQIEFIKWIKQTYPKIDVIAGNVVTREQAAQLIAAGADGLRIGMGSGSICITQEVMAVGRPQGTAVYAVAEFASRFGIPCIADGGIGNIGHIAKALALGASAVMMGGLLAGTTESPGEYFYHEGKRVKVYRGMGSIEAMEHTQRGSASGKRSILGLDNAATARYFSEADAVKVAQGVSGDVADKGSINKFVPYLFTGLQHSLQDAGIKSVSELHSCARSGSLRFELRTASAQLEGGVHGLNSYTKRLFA
T2 sequence (E3P6S3 entry or part of it): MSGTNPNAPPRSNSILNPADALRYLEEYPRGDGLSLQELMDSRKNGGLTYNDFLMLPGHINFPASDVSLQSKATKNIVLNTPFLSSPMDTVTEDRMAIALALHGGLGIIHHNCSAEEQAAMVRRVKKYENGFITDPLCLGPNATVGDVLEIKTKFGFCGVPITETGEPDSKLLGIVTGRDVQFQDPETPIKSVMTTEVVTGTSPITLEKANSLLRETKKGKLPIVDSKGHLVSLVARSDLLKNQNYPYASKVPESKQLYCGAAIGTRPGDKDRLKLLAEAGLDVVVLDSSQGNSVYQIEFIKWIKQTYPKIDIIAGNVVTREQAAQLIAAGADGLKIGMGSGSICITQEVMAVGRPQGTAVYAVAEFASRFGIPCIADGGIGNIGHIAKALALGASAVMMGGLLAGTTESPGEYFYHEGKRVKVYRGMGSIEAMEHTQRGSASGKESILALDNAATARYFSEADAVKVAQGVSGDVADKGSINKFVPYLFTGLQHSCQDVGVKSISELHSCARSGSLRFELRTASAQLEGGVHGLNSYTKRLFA

Row | Molecule | Ki [1] | Ki [2] | Km [3]
1 | COc1c(C)c2c(c(O)c1C/C=C(\C)CCC(=O)O)C(=O)OC2 [MPA, mycophenolic acid] | 240 ± 18 nM | 96 ± 5 nM | –
2 | CgImd1 (IMP dehydrogenase, CgIMPDH, VGIV) (Cryptococcus bacillisporus) | – | – | 532 ± 65 µM
3 | CnImd1 (IMP dehydrogenase, CnIMPDH, VNI) (Cryptococcus neoformans H99) | – | – | 634 ± 97 µM
